Data on 31 molecules can be found in patent publication US8324245B2, “Quinoline derivative and quinazoline derivative inhibiting self-phosphorylation of hepatocytus proliferator receptor, and medicinal composition containing the same” (Kyowa Hakko Kirin Co., Ltd., priority 2001, dated 2012).

This assay deals with T1, met (HGF receptor) in human gastric cancer cells MKN45 (Homo sapiens, UniProt P08581).
T1 construct: endogenous in cells; host or cells: MKN45 human gastric cancer cells
The assay can be described thus: Inhibitory activity against met-autophosphorylation using ELISA method (2), MKN45 cells, HGF-independent. In kind it is cell-based. The gist of the method:
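MKN45 cells, 3×10^4 per well in RPMI with 0.1% FCS overnight, were exposed to compound in DMSO for 1 h at 37 °C without HGF. Lysates were captured on anti-phosphotyrosine (PY20) plates, Met detected with anti-Met and peroxidase secondary antibody, absorbance at 450 nm.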

pIC50: −log10 of the molar value.

T1 sequence (P08581 25-1390): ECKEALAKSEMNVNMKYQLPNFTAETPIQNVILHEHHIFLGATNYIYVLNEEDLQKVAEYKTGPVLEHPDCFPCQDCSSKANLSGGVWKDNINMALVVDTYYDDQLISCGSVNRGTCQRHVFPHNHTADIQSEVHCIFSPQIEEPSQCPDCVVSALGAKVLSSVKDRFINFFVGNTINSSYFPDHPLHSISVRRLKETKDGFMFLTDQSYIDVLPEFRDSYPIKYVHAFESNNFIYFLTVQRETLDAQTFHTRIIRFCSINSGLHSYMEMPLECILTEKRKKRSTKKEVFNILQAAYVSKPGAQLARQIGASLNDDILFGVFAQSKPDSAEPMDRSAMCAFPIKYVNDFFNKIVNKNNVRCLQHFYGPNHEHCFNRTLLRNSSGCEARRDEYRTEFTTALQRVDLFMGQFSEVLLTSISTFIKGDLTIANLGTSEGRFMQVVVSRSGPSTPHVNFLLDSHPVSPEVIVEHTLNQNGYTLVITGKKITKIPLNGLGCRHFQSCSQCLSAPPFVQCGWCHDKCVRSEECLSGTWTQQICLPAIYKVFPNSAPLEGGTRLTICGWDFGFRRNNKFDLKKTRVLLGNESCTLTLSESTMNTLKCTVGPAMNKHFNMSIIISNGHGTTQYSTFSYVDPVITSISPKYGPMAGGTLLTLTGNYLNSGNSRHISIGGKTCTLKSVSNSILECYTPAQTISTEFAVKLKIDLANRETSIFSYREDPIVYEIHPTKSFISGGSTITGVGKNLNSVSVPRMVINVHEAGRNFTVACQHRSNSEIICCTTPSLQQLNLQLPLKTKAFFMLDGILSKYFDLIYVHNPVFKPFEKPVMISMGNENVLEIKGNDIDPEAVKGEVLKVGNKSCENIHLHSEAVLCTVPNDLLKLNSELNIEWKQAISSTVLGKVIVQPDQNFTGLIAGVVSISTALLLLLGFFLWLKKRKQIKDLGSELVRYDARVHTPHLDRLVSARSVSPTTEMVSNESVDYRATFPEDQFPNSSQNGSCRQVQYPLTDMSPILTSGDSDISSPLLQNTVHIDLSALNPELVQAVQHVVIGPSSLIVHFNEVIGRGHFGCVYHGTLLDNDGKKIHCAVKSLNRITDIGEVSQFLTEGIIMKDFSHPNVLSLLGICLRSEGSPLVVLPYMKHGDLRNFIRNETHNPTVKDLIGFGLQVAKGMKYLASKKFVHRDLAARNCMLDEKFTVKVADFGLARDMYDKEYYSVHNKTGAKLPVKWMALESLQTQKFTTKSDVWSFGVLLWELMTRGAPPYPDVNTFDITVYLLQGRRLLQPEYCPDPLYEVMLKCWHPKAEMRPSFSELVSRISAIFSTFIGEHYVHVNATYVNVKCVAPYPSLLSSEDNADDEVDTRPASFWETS

The molecule `CCN(CC)CCOc1cc2nccc(Oc3ccc(NC(=S)NC(=O)Cc4ccc(F)cc4)cc3F)c2cc1OC` [Example 275, 1-{4-[7-(2-Diethylamino-ethoxy)-6-methoxy-quinolin-4-yloxy]-3-fluoro-phenyl}-3-[2-(4-fluoro-phenyl)-acetyl]-thiourea] gave a negative logarithm of the IC50 (pIC50) of 7.64.
Under `COc1cc2c(Oc3ccc(NC(=S)NC(=O)Cc4ccccc4)cc3F)ccnc2cc1OCCN1CCOCC1` [Example 276] stands 7.72.
On to `COc1cc2c(Oc3ccc(NC(=S)NC(=O)Cc4ccccc4F)cc3F)ccnc2cc1OCCN1CCOCC1` [Example 278, 1-{3-Fluoro-4-[6-methoxy-7-(2-morpholin-4-yl-ethoxy)-quinolin-4-yloxy]-phenyl}-3-[2-(2-fluoro-phenyl)-acetyl]-thiourea], for which the negative logarithm of the IC50 (pIC50) was 7.60.
As for `COc1cc2c(Oc3ccc(NC(=S)NC(=O)Cc4cccc(F)c4)cc3F)ccnc2cc1OCCN1CCOCC1` [Example 279, 1-{3-Fluoro-4-[6-methoxy-7-(2-morpholin-4-yl-ethoxy)-quinolin-4-yloxy]-phenyl}-3-[2-(3-fluoro-phenyl)-acetyl]-thiourea], the negative-log IC50 (pIC50) is 7.69.
Under `COc1cc2c(Oc3ccc(NC(=O)NC(=O)Cc4ccccc4)cc3F)ccnc2cc1OCCN1CCC(CO)CC1` [Example 283] stands 7.84.
Under `COc1cc2c(Oc3ccc(NC(=S)NC(=O)Cc4ccccc4)cc3F)ccnc2cc1OCCN1CCC(CO)CC1` [Example 284, 1-(3-Fluoro-4-{7-[2-(4-hydroxymethyl-piperidin-1-yl)-ethoxy]-6-methoxy-quinolin-4-yloxy}-phenyl)-3-phenylacetyl-thiourea] stands 7.82; under `COc1cc2c(Oc3ccc(NC(=O)NC(=O)Cc4ccccc4)c(F)c3)ccnc2cc1OCCCN1CCOCC1` [Example 287], 7.65; under `COc1cc2c(Oc3ccc(NC(=S)NC(=O)Cc4cccc(F)c4)cc3F)ccnc2cc1OCCCN1CCOCC1` [Example 289], 7.62.
Under `CCN(CC)CCCOc1cc2nccc(Oc3ccc(NC(=O)NC(=O)Cc4ccccc4)cc3F)c2cc1OC` [Example 291, 1-{4-[7-(3-Diethylamino-propoxy)-6-methoxy-quinolin-4-yloxy]-3-fluoro-phenyl}-3-phenylacetyl-urea] stands 7.71; under `COc1cc2c(Oc3ccc(NC(=O)NC(=O)Cc4ccccc4)cc3F)ccnc2cc1OCCCN1CCCC1` [Example 292, 1-{3-Fluoro-4-[6-methoxy-7-(3-pyrrolidin-1-yl-propoxy)-quinolin-4-yloxy]-phenyl}-3-phenylacetyl-urea], 7.69.
In turn, `CCN(CC)CCCOc1cc2nccc(Oc3ccc(NC(=O)NC(=O)Cc4ccccc4F)cc3F)c2cc1OC` [Example 293, 1-{4-[7-(3-Diethylamino-propoxy)-6-methoxy-quinolin-4-yloxy]-3-fluoro-phenyl}-3-[2-(2-fluoro-phenyl)-acetyl]-urea] had a pIC50 of 7.68.
Under `COc1cc2c(Oc3ccc(NC(=O)NC(=O)Cc4ccccc4F)cc3F)ccnc2cc1OCCCN1CCCC1` [Example 294, 1-{3-Fluoro-4-[6-methoxy-7-(3-pyrrolidin-1-yl-propoxy)-quinolin-4-yloxy]-phenyl}-3-[2-(2-fluoro-phenyl)-acetyl]-urea] stands 7.64; under `COc1cc2c(Oc3ccc(NC(=O)NC(=O)Cc4ccccc4F)cc3F)ccnc2cc1OCCCN1CCCCC1` [Example 295, 1-{3-Fluoro-4-[6-methoxy-7-(3-piperidin-1-yl-propoxy)-quinolin-4-yloxy]-phenyl}-3-[2-(2-fluoro-phenyl)-acetyl]-urea], 7.62.
Under `COc1cc2c(Oc3ccc(NC(=O)NC(=O)Cc4ccccc4F)cc3F)ccnc2cc1OCCCN1CCN(C)CC1` [Example 296, 1-(3-Fluoro-4-{6-methoxy-7-[3-(4-methyl-piperazin-1-yl)-propoxy]-quinolin-4-yloxy}-phenyl)-3-[2-(2-fluoro-phenyl)-acetyl]-urea] stands 7.71; under `COc1cc2c(Oc3ccc(NC(=S)NC(=O)Cc4ccccc4F)cc3Cl)ccnc2cc1OCCCN1CCOCC1` [Example 298, 1-{3-Chloro-4-[6-methoxy-7-(3-morpholin-4-yl-propoxy)-quinolin-4-yloxy]-phenyl}-3-[2-(2-fluoro-phenyl)-acetyl]-thiourea], 7.05; under `COc1cc2c(Oc3ccc(NC(=S)NC(=O)Cc4ccccc4)cc3Cl)ccnc2cc1OCCCN1CCOCC1` [Example 300, 1-{3-Chloro-4-[6-methoxy-7-(3-morpholin-4-yl-propoxy)-quinolin-4-yloxy]-phenyl}-3-phenylacetyl-thiourea], 7.65.
Under `COc1cc2c(Oc3ccc(NC(=S)NC(=O)Cc4ccc(C)cc4)cc3F)ccnc2cc1OCCCN1CCOCC1` [Example 304, 1-{3-Fluoro-4-[6-methoxy-7-(3-morpholin-4-yl-propoxy)-quinolin-4-yloxy]-phenyl}-3-(2-p-toluyl-acetyl)-thiourea] stands 7.18.
The molecule `COc1cc2c(Oc3ccc(NC(=O)NC(=O)Cc4ccccc4)cc3F)ccnc2cc1OCCCn1ccnc1` [Example 305, 1-{3-Fluoro-4-[7-(3-imidazol-1-yl-propoxy)-6-methoxy-quinolin-4-yloxy]-phenyl}-3-phenylacetyl-urea] gave a pIC50 of 7.67.
On to `COc1cc2c(Oc3ccc(NC(=O)NC(=O)Cc4ccccc4F)cc3F)ccnc2cc1OCCCn1ccnc1` [Example 306, 1-{3-Fluoro-4-[7-(3-imidazol-1-yl-propoxy)-6-methoxy-quinolin-4-yloxy]-phenyl}-3-[2-(2-fluoro-phenyl)-acetyl]-urea], for which the pIC50 is 7.47.
The molecule `COc1cc2c(Oc3ccc(NC(=S)NC(=O)Cc4ccccc4)cc3F)ccnc2cc1OCCCn1ccnc1` [Example 307, 1-{3-Fluoro-4-[7-(3-imidazol-1-yl-propoxy)-6-methoxy-quinolin-4-yloxy]-phenyl}-3-phenylacetyl-thiourea] gave a pIC50 of 7.24.
Molecule `COc1cc2c(Oc3ccc(NC(=O)NC(=O)Cc4ccccc4)cc3F)ccnc2cc1OCCCN1CCC(CO)CC1` [Example 308, 1-(3-Fluoro-4-{7-[3-(4-hydroxymethyl-piperidin-1-yl)-propoxy]-6-methoxy-quinolin-4-yloxy}-phenyl)-3-phenylacetyl-urea] gave a pIC50 of 7.67.
Consider `COc1cc2c(Oc3ccc(NC(=S)NC(=O)Cc4ccccc4)cc3F)ccnc2cc1OCCCN1CCC(CO)CC1` [Example 309, 1-(3-Fluoro-4-{7-[3-(4-hydroxymethyl-piperidin-1-yl)-propoxy]-6-methoxy-quinolin-4-yloxy}-phenyl)-3-phenylacetyl-thiourea], for which the pIC50 is 7.70.
As for `COc1cc2c(Oc3ccc(NC(=S)NC(=O)Cc4ccc(F)cc4)cc3F)ccnc2cc1OCCCN1CCC(CO)CC1` [Example 310, 1-(3-Fluoro-4-{7-[3-(4-hydroxymethyl-piperidin-1-yl)-propoxy]-6-methoxy-quinolin-4-yloxy}-phenyl)-3-[2-(4-fluoro-phenyl)-acetyl]-thiourea], the pIC50 is 7.68.
Consider `COc1cc2c(Oc3ccc(NC(=O)NC(=O)Cc4ccccc4)c(F)c3)ccnc2cc1OCCCN1CCC(CO)CC1` [Example 311, 1-(2-Fluoro-4-{7-[3-(4-hydroxymethyl-piperidin-1-yl)-propoxy]-6-methoxy-quinolin-4-yloxy}-phenyl)-3-phenyl-acetyl-urea], for which the pIC50 was 7.73.
Molecule `COc1cc2c(Oc3ccc(NC(=S)NC(=O)Cc4ccccc4Cl)cc3F)ccnc2cc1OCC(O)CN1CCCCC1` (stereo not shown) [Example 316, 1-[2-(2-Chloro-phenyl)-acetyl]-3-{3-fluoro-4-[7-(2-hydroxy-3-piperidin-1-yl-propoxy)-6-methoxy-quinolin-4-yloxy]-phenyl}-thiourea] had a negative logarithm of the IC50 (pIC50) of 6.73.
As to `COc1cc2c(Oc3ccc(NC(=S)NC(=O)Cc4ccccc4Cl)cc3F)ccnc2cc1OCC(O)CN1CCCC1` (stereo not shown) [Example 317, 1-[2-(2-Chloro-phenyl)-acetyl]-3-{3-fluoro-4-[7-(2-hydroxy-3-pyrrolidin-1-yl-propoxy)-6-methoxy-quinolin-4-yloxy]-phenyl}-thiourea], the negative-log IC50 (pIC50) was 7.37.
Under `COc1cc2c(Oc3ccc(NC(=S)NC(=O)Cc4ccccc4F)cc3F)ccnc2cc1OCC(O)CN1CCCCC1` (stereo not shown) [Example 318, 1-(3-Fluoro-4-[7-(2-hydroxy-3-piperidin-1-yl-propoxy)-6-methoxy-quinolin-4-yloxy]-phenyl)-3-[2-(2-fluoro-phenyl)-acetyl]-thiourea] stands 7.55; under `COc1cc2c(Oc3ccc(NC(=S)NC(=O)Cc4ccccc4F)cc3F)ccnc2cc1OCC(O)CN1CCCC1` (stereo not shown) [Example 319, 1-{3-Fluoro-4-[7-(2-hydroxy-3-pyrrolidin-1-yl-propoxy)-6-methoxy-quinolin-4-yloxy]-phenyl}-3-[2-(2-fluoro-phenyl)-acetyl]-thiourea], 6.90.
Under `COc1cc2c(Oc3ccc(NC(=S)NC(=O)Cc4cccc(Cl)c4)cc3F)ccnc2cc1OCC(O)CN1CCCCC1` (stereo not shown) [Example 321, 1-[2-(3-Chloro-phenyl)-acetyl]-3-{3-fluoro-4-[7-(2-hydroxy-3-piperidin-1-yl-propoxy)-6-methoxy-quinolin-4-yloxy]-phenyl}-thiourea] stands 6.90; under `COc1cc2c(Oc3ccc(NC(=S)NC(=O)Cc4cccc(F)c4)cc3F)ccnc2cc1OCC(O)CN1CCCCC1` (stereo not shown) [Example 324, 1-{3-Fluoro-4-[7-(2-hydroxy-3-piperidin-1-yl-propoxy)-6-methoxy-quinolin-4-yloxy]-phenyl}-3-[2-(3-fluoro-phenyl)-acetyl]-thiourea], 7.63.
Turning to `COc1cc2c(Oc3ccc(NC(=S)NC(=O)Cc4cccc(F)c4)cc3F)ccnc2cc1OCC(O)CN1CCCC1` (stereo not shown) [Example 325, 1-{3-Fluoro-4-[7-(2-hydroxy-3-pyrrolidin-1-yl-propoxy)-6-methoxy-quinolin-4-yloxy]-phenyl}-3-[2-(3-fluoro-phenyl)-acetyl]-thiourea], the pIC50 was 7.73.
